Data reported in PubChem BioAssay AID248 (DTP/NCI, 2004).
“And” between values parts separate entries of the source, which are not always exact repeats. Equal entries are not always repeated. Inconclusive results and toxic doses are left out.

Test system: L1210 leukemia ip in BDF1 mice, survival T/C
Experiment: NCI In Vivo Anticancer Drug Screen. Data for tumor model L1210 Leukemia (intraperitoneal) in B6D2F1 (BDF1) mice
Conditions: endpoint: mean survival time, higher = longer survival
Procedure, shortened: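 Tumor cells were implanted, animals were treated, and survival was followed. The result divides the treated measurement by the vehicle-control measurement.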

[1] = dose: 100.0 mg/kg/injection, schedule: Q01DX001 (ip), vehicle: saline
[2] = dose: 100.0 mg/kg/injection, schedule: Q04DX002 (ip), vehicle: Klucel (hydroxypropylcellulose) (HPC)
[3] = dose: 200.0 mg/kg/injection, schedule: Q04DX002 (ip), vehicle: Klucel (hydroxypropylcellulose) (HPC)
[4] = dose: 400.0 mg/kg/injection, schedule: Q04DX002 (ip), vehicle: Klucel (hydroxypropylcellulose) (HPC)
[5] = dose: 100.0 mg/kg/injection, schedule: Q01DX009 (ip), vehicle: saline with Tween-80
[6] = dose: 100.0 mg/kg/injection, schedule: Q04DX003 (ip), vehicle: saline with Tween-80
[7] = dose: 200.0 mg/kg/injection, schedule: Q01DX009 (ip), vehicle: saline with Tween-80
[8] = dose: 200.0 mg/kg/injection, schedule: Q04DX003 (ip), vehicle: saline with Tween-80
[9] = dose: 400.0 mg/kg/injection, schedule: Q01DX009 (ip), vehicle: saline with Tween-80
[10] = dose: 400.0 mg/kg/injection, schedule: Q04DX003 (ip), vehicle: saline with Tween-80
[11] = dose: 100.0 mg/kg/injection, schedule: Q01DX009 (ip), vehicle: Klucel (hydroxypropylcellulose) (HPC)
[12] = dose: 100.0 mg/kg/injection, schedule: Q04DX003 (ip), vehicle: Klucel (hydroxypropylcellulose) (HPC)
[13] = dose: 200.0 mg/kg/injection, schedule: Q01DX009 (ip), vehicle: Klucel (hydroxypropylcellulose) (HPC)

SMILES: Nc1nccs1
- T/C (dose: 0.75 mg/kg/injection, schedule: Q01DX009 (ip), vehicle: carboxymethylcellulose (CMC)): 100 % of control
- T/C (dose: 1.5 mg/kg/injection, schedule: Q01DX009 (ip), vehicle: carboxymethylcellulose (CMC)): 103 % of control
- T/C (dose: 1.5 mg/kg/injection, schedule: Q04DX002 (ip), vehicle: saline with Tween-80): 93 % of control
- T/C (dose: 3.0 mg/kg/injection, schedule: Q01DX009 (ip), vehicle: carboxymethylcellulose (CMC)): 100 % of control
- T/C (dose: 3.0 mg/kg/injection, schedule: Q04DX002 (ip), vehicle: saline with Tween-80): 90 % of control
- T/C (dose: 3.5 mg/kg/injection, schedule: Q04DX002 (ip), vehicle: saline with Tween-80): 91 % of control
- T/C (dose: 6.0 mg/kg/injection, schedule: Q01DX009 (ip), vehicle: carboxymethylcellulose (CMC)): 100 % of control
- T/C (dose: 12.0 mg/kg/injection, schedule: Q01DX009 (ip), vehicle: carboxymethylcellulose (CMC)): 103 % of control
- T/C (dose: 12.0 mg/kg/injection, schedule: Q04DX002 (ip), vehicle: saline with Tween-80): 101 % of control and 91 % of control

SMILES: CCOC(=O)N(Cl)Cl
- T/C (dose: 3.13 mg/kg/injection, schedule: Q04DX003 (ip), vehicle: saline): 105 % of control
- T/C (dose: 6.25 mg/kg/injection, schedule: Q04DX003 (ip), vehicle: saline): 98 % of control
- T/C (dose: 12.5 mg/kg/injection, schedule: Q04DX003 (ip), vehicle: saline): 98 % of control

SMILES: c1ccc2c(c1)OC1OC2Oc2ccccc21
- T/C [1]: 97 % of control
- T/C (dose: 177.0 mg/kg/injection, schedule: Q01DX001 (ip), vehicle: saline): 104 % of control and 92 % of control
- T/C (dose: 200.0 mg/kg/injection, schedule: Q01DX001 (ip), vehicle: saline): 101 % of control
- T/C (dose: 266.0 mg/kg/injection, schedule: Q01DX001 (ip), vehicle: saline): 93 % of control and 94 % of control
- T/C (dose: 400.0 mg/kg/injection, schedule: Q01DX001 (ip), vehicle: saline): 88 % of control and 90 % of control
- T/C (dose: 600.0 mg/kg/injection, schedule: Q01DX001 (ip), vehicle: saline): 86 % of control and 92 % of control

SMILES: NCCCCCCCCCCC(=O)O
- T/C [2]: 115 % of control
- T/C [3]: 95 % of control
- T/C [4]: 101 % of control

SMILES: CC1(CC(O)(C(F)(F)F)C(F)(F)F)NC(=O)NC1=O (configuration not stated)
- T/C [5]: 97 % of control
- T/C [6]: 93 % of control
- T/C [7]: 99 % of control
- T/C [8]: 96 % of control
- T/C [9]: 99 % of control
- T/C [10]: 91 % of control

SMILES: CCCNC(=O)OC/C=C\CC(Cl)(Cl)Cl
- T/C (dose: 50.0 mg/kg/injection, schedule: Q01DX009 (ip), vehicle: Klucel (hydroxypropylcellulose) (HPC)): 97 % of control
- T/C [11]: 96 % of control
- T/C [12]: 87 % of control
- T/C [13]: 94 % of control
- T/C (dose: 200.0 mg/kg/injection, schedule: Q04DX003 (ip), vehicle: Klucel (hydroxypropylcellulose) (HPC)): 94 % of control
- T/C (dose: 400.0 mg/kg/injection, schedule: Q04DX003 (ip), vehicle: Klucel (hydroxypropylcellulose) (HPC)): 86 % of control

SMILES: COC1OC2COc3ccccc3OC2C2C1N2C(c1ccccc1)N1C2C(OC)OC3COc4ccccc4OC3C21 (configuration not stated)
- T/C [2]: 93 % of control
- T/C [3]: 100 % of control
- T/C [4]: 107 % of control

SMILES: C[C@]12CCC(=O)C=C1CC[C@H]1[C@@H]3CC[C@](O)(C(=O)CO)[C@@]3(C)CC(=O)[C@@]12SC(N)=O
- T/C (dose: 100.0 mg/kg/injection, schedule: Q01DX001 (ip), vehicle: steriod suspending solution): 92 % of control
- T/C (dose: 200.0 mg/kg/injection, schedule: Q01DX001 (ip), vehicle: steriod suspending solution): 92 % of control
- T/C (dose: 400.0 mg/kg/injection, schedule: Q01DX001 (ip), vehicle: steriod suspending solution): 104 % of control

SMILES: O/N=C(/CBr)c1ccccc1
- T/C (dose: 12.5 mg/kg/injection, schedule: Q04DX002 (ip), vehicle: gum acacia): 109 % of control
- T/C (dose: 25.0 mg/kg/injection, schedule: Q04DX002 (ip), vehicle: gum acacia): 87 % of control
- T/C (dose: 50.0 mg/kg/injection, schedule: Q04DX002 (ip), vehicle: gum acacia): 102 % of control

SMILES: CCCCCCOc1ccc(/C=N\N=C\c2ccc(OCCCCCC)cc2)cc1
- T/C [5]: 92 % of control
- T/C [7]: 89 % of control
- T/C [9]: 91 % of control

SMILES: O=[N+]([O-])c1cccc(CO)c1-c1c(CO)cccc1[N+](=O)[O-]
- T/C [5]: 101 % of control
- T/C [7]: 102 % of control
- T/C [9]: 101 % of control

SMILES: CC(=O)NN
- T/C [1]: 104 % of control

SMILES: CC(=O)C1=C(c2ccccc2)NC(=O)NC1c1ccco1 (configuration not stated)
- T/C [6]: 94 % of control
- T/C [8]: 90 % of control
- T/C [10]: 92 % of control

SMILES: Cn1c(Cl)c(C(=O)O)c2ccccc21
- T/C (dose: 50.0 mg/kg/injection, schedule: Q04DX002 (ip), vehicle: Klucel (hydroxypropylcellulose) (HPC)): 97 % of control
- T/C [2]: 97 % of control
- T/C [3]: 101 % of control

SMILES: Nc1nc(SN=Nc2ccc([As](=O)(O)O)cc2)c2[nH]cnc2n1
- T/C (dose: 0.5 mg/kg/injection, schedule: Q01DX Z (ip), vehicle: other): 110 % of control
- T/C (dose: 0.7 mg/kg/injection, schedule: Q01DX Z (ip), vehicle: other): 114 % of control
- T/C (dose: 1.25 mg/kg/injection, schedule: Q01DX015 (ip), vehicle: carboxymethylcellulose (CMC)): 106 % of control
- T/C (dose: 1.3 mg/kg/injection, schedule: Q01DX Z (ip), vehicle: other): 107 % of control
- T/C (dose: 2.5 mg/kg/injection, schedule: Q01DX015 (ip), vehicle: carboxymethylcellulose (CMC)): 115 % of control
- T/C (dose: 10.0 mg/kg/injection, schedule: Q01DX015 (ip), vehicle: carboxymethylcellulose (CMC)): 159 % of control
- T/C (dose: 11.0 mg/kg/injection, schedule: Q01DX Z (ip), vehicle: other): 151 % of control and 154 % of control
- T/C (dose: 25.0 mg/kg/injection, schedule: Q## X001 (ip), vehicle: carboxymethylcellulose (CMC)): 113 % of control
- T/C (dose: 50.0 mg/kg/injection, schedule: Q## X001 (ip), vehicle: carboxymethylcellulose (CMC)): 123 % of control
- T/C (dose: 56.0 mg/kg/injection, schedule: Q01DX Z (ip), vehicle: other): 106 % of control

SMILES: CCCCNc1nc(N)nc(N)c1N=Nc1ccc(Cl)cc1
- T/C (dose: 100.0 mg/kg/injection, schedule: Q01DX001 (ip), vehicle: carboxymethylcellulose (CMC)): 101 % of control
- T/C (dose: 200.0 mg/kg/injection, schedule: Q01DX001 (ip), vehicle: carboxymethylcellulose (CMC)): 96 % of control
- T/C (dose: 400.0 mg/kg/injection, schedule: Q01DX001 (ip), vehicle: carboxymethylcellulose (CMC)): 98 % of control

SMILES: C=CCOCC(O)CN1CCC(C)CC1 (configuration not stated)
- T/C (dose: 6.0 mg/kg/injection, schedule: Q04DX003 (ip), vehicle: Klucel (hydroxypropylcellulose) (HPC)): 95 % of control
- T/C (dose: 12.0 mg/kg/injection, schedule: Q04DX003 (ip), vehicle: Klucel (hydroxypropylcellulose) (HPC)): 95 % of control
- T/C (dose: 25.0 mg/kg/injection, schedule: Q04DX003 (ip), vehicle: Klucel (hydroxypropylcellulose) (HPC)): 97 % of control
- T/C (dose: 50.0 mg/kg/injection, schedule: Q04DX003 (ip), vehicle: Klucel (hydroxypropylcellulose) (HPC)): 98 % of control
- T/C [12]: 95 % of control

SMILES: C1=Cc2c3c(c4c(c2C1)C=CC4)CC=C3
- T/C (dose: 25.0 mg/kg/injection, schedule: Q01DX001 (ip), vehicle: Klucel (hydroxypropylcellulose) (HPC)): 93 % of control
- T/C (dose: 50.0 mg/kg/injection, schedule: Q01DX001 (ip), vehicle: Klucel (hydroxypropylcellulose) (HPC)): 97 % of control
- T/C (dose: 100.0 mg/kg/injection, schedule: Q01DX001 (ip), vehicle: Klucel (hydroxypropylcellulose) (HPC)): 101 % of control
- T/C [11]: 95 % of control
- T/C (dose: 200.0 mg/kg/injection, schedule: Q01DX001 (ip), vehicle: Klucel (hydroxypropylcellulose) (HPC)): 92 % of control
- T/C [13]: 88 % of control
- T/C (dose: 400.0 mg/kg/injection, schedule: Q01DX001 (ip), vehicle: Klucel (hydroxypropylcellulose) (HPC)): 93 % of control
- T/C (dose: 400.0 mg/kg/injection, schedule: Q01DX009 (ip), vehicle: Klucel (hydroxypropylcellulose) (HPC)): 95 % of control

SMILES: NC1=CC(=O)C(=O)c2cccnc21
- T/C (dose: 75.0 mg/kg/injection, schedule: Q01DX001 (ip), vehicle: other): 92 % of control

SMILES: CCCCCC(O)CCCCC
- T/C (dose: 100.0 mg/kg/injection, schedule: Q01DX009 (ip), vehicle: saline): 102 % of control
- T/C (dose: 200.0 mg/kg/injection, schedule: Q01DX009 (ip), vehicle: saline): 107 % of control
- T/C (dose: 400.0 mg/kg/injection, schedule: Q01DX009 (ip), vehicle: saline): 113 % of control

SMILES: COc1cc(NC(=O)O/N=C/c2ccccn2)cc(OC)c1OC
- T/C [5]: 91 % of control
- T/C [7]: 92 % of control
